No end group written: not given here.
Key:
[1] = Clinical signs of immunised rabbits; type: in vivo; conditions: Example 1; subcutaneous, 3 immunisations at 2 week intervals
Description: (§1) Before immunisation, a pre-immunisation serum sample (T0) of each rabbit were collected. Two weeks after the last of 3 immunisations (given at 2 week intervals) an immune serum sample (T1) was collected from each rabbit. Hereafter further immune serum samples were collected T2 (4 weeks after T1); T3 (four weeks after T2) etc.
Before immunisation, a pre-immunisation serum sample (T0) of each rabbit were collected. Before each of the following immunisations (given at 2 week intervals) an immune serum sample (T1, T2, T3 or T4 ) was collected from each rabbit. The serum sampling frequency is higher compared with example 1.
(§2) Before immunisation, a pre-immunisation serum sample (T0) of each rabbit was collected. Before each of the following immunisations (given at 2 week intervals) an immune serum sample (T1, T2, or T3) was collected from each rabbit.

[2] = tested on: parvovirus peptide; assay: Rabbit immunisation with Parv or Parv+TGF-29, serum ELISA for antibody titre (Example 1); type: in vivo, rabbits; conditions: immune serum samples vs corresponding T0 sera; 3 subcutaneous immunisations at 2 week intervals; freunds incomplete adjuvant
Experimental: Both preparations were subcutaneously injected into 2 groups of rabbits. The content of each injected dose of 0.2 mL were:
The rabbits were immunised by subcuteous injection according to normal standard immunisation procedures for antibody production in rabbits at a legal laboratory animal facility.
as §1
(§3) The serum samples were analysed on an ELISA plate according to standard laboratory operations: Coating the plate bottom with parvo virus peptide derivative overnight, washings, incubation with serial dilutions of all serum samples, washings, incubation with HRP-Goat anti Rabbit Ig, washings, incubation with substrate, stop reaction with acid, and reading of the plate.

[3] = tested on: parvovirus peptide; assay: Rabbit immunisation with parvovirus peptide, TGF-29 dose and Titermax adjuvant, serum ELISA (Example 3); type: in vivo, rabbits; conditions: bleeding T3 (6 weeks after first immunisation); 20 ug TGF-29 + 100 ug parvovirus peptide + Titermax (preparation Iris)
Experimental: Both preparations were subcutaneously injected into 2 groups of rabbits. Each injected dose was 0, 1 mL and the preparations for a resulting volume between 0,4 and 0,5 mL was made as follows:
The rabbits were then immunised according to the normal standard immunisation procedure for antibody production in rabbits at a legal laboratory animal facility.
as §2, §3

Substance: Ac-CDGAVQPDGGQPAVRNER-NH2 [Parv]
- unusual clinical signs [1]: None of the rabbits showed any unusual clinical signs
- antibody titre to the parvovirus peptide [2]: Non-detectable or less antibody titre to the parvovirus peptide than in the corresponding T0 sera

Substance: ALDAAYCFRNVQDNCCLRPLYIDFKRDLG (cysteine pairing not given here) [TGF-29, N-terminal 29 amino acid fragment of mature TGF-β]
- titer to the parvovirus peptide compared with the corresponding T0 serum [3]: more than three 5-fold serial antiserum dilutions better
- titer to the parvovirus peptide, rank among all bleedings of the example [3]: highest titer

— patent publication US20020160012A1, “Vaccine chip technology exploiting immunostimulating fragment of TGF-BETA” (priority 2000, published 2002)
